Activity calls are given as the source filed them.
Experiments:
[1] = molecular target: Large T antigen (Simian virus 40, UniProt P03070); type: functional, Betapolyomavirus macacae;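 also: Confirmatory-stage PubChem screen for compounds that inhibit SV40 T antigen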
[2] = molecular target: T1, Polyadenylate-binding protein 1 (Homo sapiens, UniProt P11940); test: MLLE binding blockers, Cy5 peptide tracer – biochemical, fluorescence polarization, Cy5-PAM2 peptide, secondary, miRNA deadenylation inhibitor project, dose response (AID 602260); type: functional; details: read-out: IC50_Mean
T1 sequence (P11940 whole entry): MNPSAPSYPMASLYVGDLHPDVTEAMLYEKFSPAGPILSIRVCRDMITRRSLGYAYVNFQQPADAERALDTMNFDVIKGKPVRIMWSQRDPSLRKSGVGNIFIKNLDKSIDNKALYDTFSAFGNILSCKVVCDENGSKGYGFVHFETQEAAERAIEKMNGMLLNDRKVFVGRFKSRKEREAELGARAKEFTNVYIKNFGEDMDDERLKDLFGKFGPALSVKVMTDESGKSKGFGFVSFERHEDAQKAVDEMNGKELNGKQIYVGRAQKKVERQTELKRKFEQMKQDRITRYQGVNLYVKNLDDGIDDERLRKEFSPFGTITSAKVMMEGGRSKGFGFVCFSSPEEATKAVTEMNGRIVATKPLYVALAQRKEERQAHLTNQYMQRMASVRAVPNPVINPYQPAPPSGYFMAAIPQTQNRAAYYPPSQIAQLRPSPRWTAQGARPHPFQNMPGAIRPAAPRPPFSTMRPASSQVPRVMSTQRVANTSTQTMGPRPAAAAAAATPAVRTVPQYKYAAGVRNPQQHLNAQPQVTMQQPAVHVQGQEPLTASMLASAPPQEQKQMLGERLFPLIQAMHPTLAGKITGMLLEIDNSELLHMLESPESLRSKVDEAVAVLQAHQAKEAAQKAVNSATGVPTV

[3] = molecular target: Lysine-specific demethylase 4C (Homo sapiens, UniProt Q9H3R0); test: inhibition of JMJD2C H3K9me3 demethylation – biochemical, DELFIA europium, cherry-picked samples, dose response (AID 488835); type: functional
[4] = molecular target: T1, Polyadenylate-binding protein 1; test: MLLE domain peptide-binding blockers, IC50 – biochemical, fluorescence polarization, FITC-PAM2 peptide, dose response (AID 602259); type: functional; details: read-out: IC50_Mean
[5] = molecular target: Genome polyprotein (dengue virus type 2, UniProt P29990); test: flavivirus cap methylation enzyme inhibition – biochemical, confirmation dose response, primary screen (AID 588689); type: functional
[6] = molecular target: T2, Cytochrome P450 1A2 (Homo sapiens, UniProt P05177);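 also: PubChem cytochrome P450 panel assay, CYP1A2 panel member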
T2 sequence (P05177 whole entry): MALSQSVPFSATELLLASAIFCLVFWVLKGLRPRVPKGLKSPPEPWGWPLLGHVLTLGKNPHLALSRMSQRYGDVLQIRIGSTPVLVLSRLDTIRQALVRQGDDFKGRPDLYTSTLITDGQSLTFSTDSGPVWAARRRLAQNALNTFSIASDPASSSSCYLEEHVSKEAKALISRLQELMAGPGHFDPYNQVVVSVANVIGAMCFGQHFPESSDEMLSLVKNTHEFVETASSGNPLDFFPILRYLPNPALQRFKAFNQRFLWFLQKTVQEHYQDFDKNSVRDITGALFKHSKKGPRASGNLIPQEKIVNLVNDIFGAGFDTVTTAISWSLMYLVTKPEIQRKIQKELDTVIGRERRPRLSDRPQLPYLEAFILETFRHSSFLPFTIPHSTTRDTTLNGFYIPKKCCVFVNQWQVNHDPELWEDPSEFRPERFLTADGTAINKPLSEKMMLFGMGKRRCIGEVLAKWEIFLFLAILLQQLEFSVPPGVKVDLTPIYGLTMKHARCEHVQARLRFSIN

[7] = molecular target: T3, Dual specificity protein phosphatase 3 (Homo sapiens, UniProt P51452); test: VHR1 phosphatase inhibitors, biochemical (AID 1878)
T3 sequence (P51452 whole entry): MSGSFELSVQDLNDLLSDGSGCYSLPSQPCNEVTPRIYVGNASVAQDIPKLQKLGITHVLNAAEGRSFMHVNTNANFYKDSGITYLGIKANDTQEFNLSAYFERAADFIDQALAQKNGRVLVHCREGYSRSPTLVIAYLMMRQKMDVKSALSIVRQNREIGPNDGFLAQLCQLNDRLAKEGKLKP

[8] = molecular target: Low molecular weight phosphotyrosine protein phosphatase (Homo sapiens, UniProt P24666); type: functional; details: read-out: IC50_Mean
[9] = molecular target: T3, Dual specificity protein phosphatase 3; test: VHR1 phosphatase inhibitors, primary screen, biochemical, absorbance, uHTS (AID 1654)
[10] = molecular target: T4, Carboxy-terminal domain RNA polymerase II polypeptide A small phosphatase 1 (Homo sapiens, UniProt Q9GZU7); test: CTDSP1 inhibitors, concentration-response, biochemical, absorbance readout, ultra-high-throughput screen actives (AID 540297); type: functional
T4 sequence (Q9GZU7 whole entry): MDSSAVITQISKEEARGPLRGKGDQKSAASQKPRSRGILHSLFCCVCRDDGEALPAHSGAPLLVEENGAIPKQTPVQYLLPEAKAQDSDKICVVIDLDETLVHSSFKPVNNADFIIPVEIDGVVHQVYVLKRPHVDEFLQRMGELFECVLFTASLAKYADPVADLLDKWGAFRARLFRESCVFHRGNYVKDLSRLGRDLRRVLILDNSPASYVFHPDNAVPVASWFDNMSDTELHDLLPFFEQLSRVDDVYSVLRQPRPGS

[11] = molecular target: T5, Dual specificity protein phosphatase 6 (Rattus norvegicus, UniProt Q64346); test: inhibition of rat DUSP6 enzyme activity – biochemical, in vitro, primary screen (AID 425)
T5 sequence (Q64346 whole entry): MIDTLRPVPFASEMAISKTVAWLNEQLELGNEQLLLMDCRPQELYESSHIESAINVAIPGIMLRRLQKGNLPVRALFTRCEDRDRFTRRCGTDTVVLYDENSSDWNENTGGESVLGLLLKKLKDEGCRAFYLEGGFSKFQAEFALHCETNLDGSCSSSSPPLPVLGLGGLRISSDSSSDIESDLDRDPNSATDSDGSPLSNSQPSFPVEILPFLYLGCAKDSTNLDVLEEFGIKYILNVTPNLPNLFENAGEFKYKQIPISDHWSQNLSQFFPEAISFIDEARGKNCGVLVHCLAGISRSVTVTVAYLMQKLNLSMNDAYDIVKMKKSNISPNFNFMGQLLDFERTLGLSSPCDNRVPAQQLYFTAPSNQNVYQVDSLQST

[12] = Counterscreen for AddAB inhibitors: absorbance-based bacterial cell-based high throughput dose response assay for inhibitors of bacterial viability. [Related pubchem assays (depositor defined):AID435030, AID449728, AID449731, AID488942, AID488955, AID488956]; type: functional
[13] = molecular target: Exodeoxyribonuclease V (Escherichia coli (strain K12), UniProt P04993+P07648+P08394); test: RecBCD inhibition via phage-restricted bacterial growth – absorbance, V66 E. coli, mutant T4 phage, counter-screen for AddAB inhibitor project, dose response (AID 492957); type: functional, cell-based, Escherichia coli str. K-12 substr. MG1655
Exodeoxyribonuclease V, sequence (P04993 whole entry): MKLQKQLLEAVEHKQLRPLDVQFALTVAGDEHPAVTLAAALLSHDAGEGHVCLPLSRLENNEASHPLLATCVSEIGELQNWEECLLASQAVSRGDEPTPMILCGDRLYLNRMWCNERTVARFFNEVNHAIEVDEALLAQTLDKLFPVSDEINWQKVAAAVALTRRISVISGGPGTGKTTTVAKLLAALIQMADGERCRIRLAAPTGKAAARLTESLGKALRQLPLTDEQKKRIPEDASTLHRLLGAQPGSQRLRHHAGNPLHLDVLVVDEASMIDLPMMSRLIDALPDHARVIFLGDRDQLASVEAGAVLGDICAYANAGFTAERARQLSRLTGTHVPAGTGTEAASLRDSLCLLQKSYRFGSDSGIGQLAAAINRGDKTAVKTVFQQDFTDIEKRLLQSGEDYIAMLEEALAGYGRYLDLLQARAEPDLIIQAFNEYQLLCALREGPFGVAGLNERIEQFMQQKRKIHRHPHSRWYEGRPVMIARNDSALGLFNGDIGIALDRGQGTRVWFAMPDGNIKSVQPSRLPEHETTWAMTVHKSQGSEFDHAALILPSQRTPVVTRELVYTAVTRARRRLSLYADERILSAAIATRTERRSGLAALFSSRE
Exodeoxyribonuclease V, sequence (P07648 whole entry): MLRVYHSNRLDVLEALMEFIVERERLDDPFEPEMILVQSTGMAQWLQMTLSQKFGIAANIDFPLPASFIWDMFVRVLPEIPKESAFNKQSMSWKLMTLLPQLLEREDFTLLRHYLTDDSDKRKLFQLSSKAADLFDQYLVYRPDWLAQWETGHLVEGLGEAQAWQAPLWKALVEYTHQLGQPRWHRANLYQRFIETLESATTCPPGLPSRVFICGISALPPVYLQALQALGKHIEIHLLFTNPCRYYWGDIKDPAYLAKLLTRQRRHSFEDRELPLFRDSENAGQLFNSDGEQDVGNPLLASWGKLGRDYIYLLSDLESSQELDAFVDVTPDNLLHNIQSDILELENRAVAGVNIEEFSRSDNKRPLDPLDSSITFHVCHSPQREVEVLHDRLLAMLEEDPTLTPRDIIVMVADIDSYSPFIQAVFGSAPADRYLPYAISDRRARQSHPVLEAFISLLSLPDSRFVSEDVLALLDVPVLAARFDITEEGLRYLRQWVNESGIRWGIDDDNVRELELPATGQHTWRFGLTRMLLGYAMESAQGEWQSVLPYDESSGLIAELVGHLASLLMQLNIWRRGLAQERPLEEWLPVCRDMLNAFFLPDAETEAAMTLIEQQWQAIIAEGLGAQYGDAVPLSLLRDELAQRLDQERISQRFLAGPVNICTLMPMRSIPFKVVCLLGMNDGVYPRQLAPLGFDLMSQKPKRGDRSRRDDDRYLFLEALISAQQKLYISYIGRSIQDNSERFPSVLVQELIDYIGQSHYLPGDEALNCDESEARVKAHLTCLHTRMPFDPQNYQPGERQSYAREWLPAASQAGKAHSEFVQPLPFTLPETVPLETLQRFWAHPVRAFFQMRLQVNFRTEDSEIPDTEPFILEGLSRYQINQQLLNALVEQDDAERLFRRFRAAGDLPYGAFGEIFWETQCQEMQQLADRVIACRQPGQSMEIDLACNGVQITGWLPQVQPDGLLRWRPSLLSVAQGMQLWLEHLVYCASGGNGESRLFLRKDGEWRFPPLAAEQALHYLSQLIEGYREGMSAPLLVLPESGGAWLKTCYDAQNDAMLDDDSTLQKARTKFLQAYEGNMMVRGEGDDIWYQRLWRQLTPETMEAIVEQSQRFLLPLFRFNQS
Exodeoxyribonuclease V, sequence (P08394 whole entry): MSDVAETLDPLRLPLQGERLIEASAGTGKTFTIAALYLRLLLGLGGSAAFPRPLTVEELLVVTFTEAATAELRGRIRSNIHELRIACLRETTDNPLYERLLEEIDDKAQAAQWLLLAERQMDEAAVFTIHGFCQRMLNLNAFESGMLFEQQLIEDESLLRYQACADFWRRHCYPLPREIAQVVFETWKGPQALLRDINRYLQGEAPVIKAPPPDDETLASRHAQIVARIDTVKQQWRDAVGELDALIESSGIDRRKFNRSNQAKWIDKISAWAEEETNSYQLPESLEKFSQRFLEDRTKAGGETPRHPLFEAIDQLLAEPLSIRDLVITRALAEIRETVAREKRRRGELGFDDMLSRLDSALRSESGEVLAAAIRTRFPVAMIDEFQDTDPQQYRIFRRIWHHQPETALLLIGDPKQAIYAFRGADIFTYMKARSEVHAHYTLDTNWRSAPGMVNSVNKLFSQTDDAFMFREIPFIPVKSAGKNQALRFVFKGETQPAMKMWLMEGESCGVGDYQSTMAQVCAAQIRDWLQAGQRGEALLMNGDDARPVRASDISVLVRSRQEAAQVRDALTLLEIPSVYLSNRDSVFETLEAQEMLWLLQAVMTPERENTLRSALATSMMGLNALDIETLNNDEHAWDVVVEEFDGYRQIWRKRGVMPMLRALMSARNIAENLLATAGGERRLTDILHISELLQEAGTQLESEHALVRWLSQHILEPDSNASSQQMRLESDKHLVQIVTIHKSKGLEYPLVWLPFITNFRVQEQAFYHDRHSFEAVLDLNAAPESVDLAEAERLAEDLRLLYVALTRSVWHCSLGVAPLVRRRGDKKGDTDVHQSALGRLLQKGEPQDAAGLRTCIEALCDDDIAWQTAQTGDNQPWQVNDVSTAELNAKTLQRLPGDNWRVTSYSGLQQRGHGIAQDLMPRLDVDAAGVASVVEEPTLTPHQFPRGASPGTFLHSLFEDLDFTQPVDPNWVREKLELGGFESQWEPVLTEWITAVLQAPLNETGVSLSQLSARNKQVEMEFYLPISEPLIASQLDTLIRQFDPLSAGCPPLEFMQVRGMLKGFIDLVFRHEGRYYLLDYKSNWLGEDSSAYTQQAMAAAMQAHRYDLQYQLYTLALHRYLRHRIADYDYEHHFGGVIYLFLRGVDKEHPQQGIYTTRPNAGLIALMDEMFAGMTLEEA

[14] = molecular target: Keap1/Nrf2 (Homo sapiens, UniProt Q14145); test: disruptors of Keap1 binding to Nrf2 peptide – biochemical, fluorescence polarization, cherry-picked samples, dose response (AID 588683)
[15] = molecular target: T6, Apoptotic protease-activating factor 1 (Homo sapiens, UniProt O14727); test: activation of Apaf-1 mediated apoptosis – fluorescent, uHTS hits, dose response (AID 588554); type: functional
T6 sequence (O14727 whole entry): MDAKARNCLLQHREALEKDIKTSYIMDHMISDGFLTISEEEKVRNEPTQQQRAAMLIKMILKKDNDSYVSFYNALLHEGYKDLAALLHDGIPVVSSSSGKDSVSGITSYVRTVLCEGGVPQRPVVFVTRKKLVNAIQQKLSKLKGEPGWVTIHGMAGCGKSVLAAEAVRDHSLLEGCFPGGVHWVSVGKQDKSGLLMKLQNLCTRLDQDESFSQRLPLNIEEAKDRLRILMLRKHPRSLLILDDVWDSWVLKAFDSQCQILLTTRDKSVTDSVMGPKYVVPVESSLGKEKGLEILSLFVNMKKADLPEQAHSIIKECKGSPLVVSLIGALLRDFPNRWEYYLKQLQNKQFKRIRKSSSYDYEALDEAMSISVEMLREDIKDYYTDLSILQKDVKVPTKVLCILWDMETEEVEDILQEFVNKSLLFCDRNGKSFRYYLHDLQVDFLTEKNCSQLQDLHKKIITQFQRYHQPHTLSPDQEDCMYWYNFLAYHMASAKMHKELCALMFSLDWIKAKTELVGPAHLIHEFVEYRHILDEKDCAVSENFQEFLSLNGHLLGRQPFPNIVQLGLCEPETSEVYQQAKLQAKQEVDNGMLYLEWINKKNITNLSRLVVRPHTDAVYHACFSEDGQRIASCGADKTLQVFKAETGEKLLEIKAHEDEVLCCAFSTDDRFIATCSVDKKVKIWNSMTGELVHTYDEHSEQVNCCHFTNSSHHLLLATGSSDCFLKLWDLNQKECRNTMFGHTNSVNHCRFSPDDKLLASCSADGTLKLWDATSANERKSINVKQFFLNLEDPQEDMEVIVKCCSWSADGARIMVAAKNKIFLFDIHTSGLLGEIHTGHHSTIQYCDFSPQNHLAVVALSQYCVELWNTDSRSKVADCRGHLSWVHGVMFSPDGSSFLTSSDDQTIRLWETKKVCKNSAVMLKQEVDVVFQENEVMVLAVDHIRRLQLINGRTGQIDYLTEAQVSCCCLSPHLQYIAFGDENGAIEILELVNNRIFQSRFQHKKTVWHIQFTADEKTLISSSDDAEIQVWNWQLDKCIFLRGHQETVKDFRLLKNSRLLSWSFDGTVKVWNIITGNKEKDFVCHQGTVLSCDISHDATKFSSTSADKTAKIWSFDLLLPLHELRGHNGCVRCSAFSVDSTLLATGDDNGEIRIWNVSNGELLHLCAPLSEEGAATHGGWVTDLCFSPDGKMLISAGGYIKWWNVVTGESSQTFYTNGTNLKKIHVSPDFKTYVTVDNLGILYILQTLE

[16] = Luminescence Cell-Based Dose Retest to Confirm Inhibitors of Cancer Stem Cells. [Related pubchem assays (depositor defined):AID2717, AID2721]; type: functional; details: Homo sapiens
[17] = viability loss of HMLE_sh_eGFP cells – cell-based, luminescence, counter-screen for HMLE_sh_ECad selective toxicity project, dose response (AID 463074); type: functional, Homo sapiens;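 also: HMLE human mammary epithelial cells expressing control shRNA against eGFP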
[18] = molecular target: Intestinal-type alkaline phosphatase (Mus musculus, UniProt P24822); test: PubChem AID 488874; type: functional
[19] = molecular target: T7, Alkaline phosphatase, tissue-nonspecific isozyme (Homo sapiens, UniProt P05186); test: inhibition of tissue-nonspecific alkaline phosphatase – biochemical, dose response (AID 488882); type: functional
T7 sequence (P05186 whole entry): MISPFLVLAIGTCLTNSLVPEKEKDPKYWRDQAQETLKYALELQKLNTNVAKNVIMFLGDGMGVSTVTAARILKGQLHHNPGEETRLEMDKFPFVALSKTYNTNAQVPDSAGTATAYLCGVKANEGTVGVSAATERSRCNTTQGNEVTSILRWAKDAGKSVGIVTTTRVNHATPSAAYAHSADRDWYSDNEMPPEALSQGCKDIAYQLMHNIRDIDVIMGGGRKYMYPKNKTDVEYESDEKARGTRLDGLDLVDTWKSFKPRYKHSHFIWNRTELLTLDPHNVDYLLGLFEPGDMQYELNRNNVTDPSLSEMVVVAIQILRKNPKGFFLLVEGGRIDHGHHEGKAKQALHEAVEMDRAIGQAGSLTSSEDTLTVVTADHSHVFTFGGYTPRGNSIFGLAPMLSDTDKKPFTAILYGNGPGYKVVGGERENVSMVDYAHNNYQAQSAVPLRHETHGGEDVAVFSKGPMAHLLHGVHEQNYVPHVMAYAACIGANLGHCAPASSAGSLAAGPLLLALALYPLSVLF

[20] = molecular target: T8, Intestinal-type alkaline phosphatase (Homo sapiens, UniProt P09923); test: inhibition of human intestinal alkaline phosphatase – biochemical, luminescent, uHTS hits, set 2, dose response (AID 488793); type: functional
T8 sequence (P09923 whole entry): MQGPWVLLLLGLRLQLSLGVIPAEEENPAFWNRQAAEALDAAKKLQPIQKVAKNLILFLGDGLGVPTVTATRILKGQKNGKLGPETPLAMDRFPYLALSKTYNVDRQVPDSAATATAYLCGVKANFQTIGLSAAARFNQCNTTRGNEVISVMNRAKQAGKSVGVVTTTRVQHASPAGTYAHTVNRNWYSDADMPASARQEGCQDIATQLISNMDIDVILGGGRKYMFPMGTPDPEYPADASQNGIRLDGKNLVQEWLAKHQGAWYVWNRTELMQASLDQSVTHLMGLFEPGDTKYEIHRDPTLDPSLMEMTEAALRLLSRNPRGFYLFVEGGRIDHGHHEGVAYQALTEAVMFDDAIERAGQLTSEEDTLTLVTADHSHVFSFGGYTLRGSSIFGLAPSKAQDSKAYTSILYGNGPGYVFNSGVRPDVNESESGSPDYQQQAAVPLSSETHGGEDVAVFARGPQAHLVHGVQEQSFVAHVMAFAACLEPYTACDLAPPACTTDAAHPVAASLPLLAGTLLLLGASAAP

[21] = molecular target: T8, Intestinal-type alkaline phosphatase; test: Dose Response confirmation of uHTS hits from a small molecule inhibitors of human intestinal alkaline phosphatase via a luminescent assay. [Related pubchem assays (depositor defined):AID2544, AID2574]; type: functional
[22] = molecular target: Cytochrome P450 2D6 (Homo sapiens, UniProt P10635);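 also: CYP2D6 member of a cytochrome P450 panel assay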
Cytochrome P450 2D6, sequence (P10635 whole entry): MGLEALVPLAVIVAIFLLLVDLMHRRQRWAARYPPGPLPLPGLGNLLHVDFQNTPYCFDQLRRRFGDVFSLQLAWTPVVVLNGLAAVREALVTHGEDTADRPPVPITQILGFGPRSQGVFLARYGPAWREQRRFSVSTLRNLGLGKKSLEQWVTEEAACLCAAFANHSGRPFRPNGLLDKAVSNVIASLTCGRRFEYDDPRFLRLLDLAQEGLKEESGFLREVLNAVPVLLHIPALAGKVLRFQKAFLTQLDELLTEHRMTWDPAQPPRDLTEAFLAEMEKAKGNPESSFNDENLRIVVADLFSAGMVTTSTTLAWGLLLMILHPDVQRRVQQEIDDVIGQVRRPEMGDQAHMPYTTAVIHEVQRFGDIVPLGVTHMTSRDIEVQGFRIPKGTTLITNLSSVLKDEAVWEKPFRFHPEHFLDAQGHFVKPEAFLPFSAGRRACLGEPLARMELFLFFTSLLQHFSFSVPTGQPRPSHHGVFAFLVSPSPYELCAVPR

[23] = molecular target: Cytochrome P450 2C19 (Homo sapiens, UniProt P33261); test: Cytochrome panel assay with activity outcomes. Panel member name: p450-cyp2c19 Compounds with AC50 equal or less than 10 uM are considered active; type: functional
[24] = molecular target: Phosphomannomutase 2 (Homo sapiens, UniProt O15305); test: Counter screen SAR assay for PMM2 inhibitors via a fluorescence intensity assay. [Related pubchem assays (depositor defined):AID1545, AID1574]
Phosphomannomutase 2, sequence (O15305 whole entry): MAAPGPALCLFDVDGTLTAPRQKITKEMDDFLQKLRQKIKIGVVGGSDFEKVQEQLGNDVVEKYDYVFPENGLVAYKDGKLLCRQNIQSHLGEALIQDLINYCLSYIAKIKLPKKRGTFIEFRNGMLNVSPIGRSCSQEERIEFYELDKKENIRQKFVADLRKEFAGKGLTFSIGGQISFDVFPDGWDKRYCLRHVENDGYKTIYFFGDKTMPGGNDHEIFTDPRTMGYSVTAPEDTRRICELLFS

[25] = molecular target: T9, Mannose-6-phosphate isomerase (Homo sapiens, UniProt P34949); test: phosphomannose isomerase inhibition – biochemical, fluorescence intensity, confirmation (AID 1535)
T9 sequence (P34949 whole entry): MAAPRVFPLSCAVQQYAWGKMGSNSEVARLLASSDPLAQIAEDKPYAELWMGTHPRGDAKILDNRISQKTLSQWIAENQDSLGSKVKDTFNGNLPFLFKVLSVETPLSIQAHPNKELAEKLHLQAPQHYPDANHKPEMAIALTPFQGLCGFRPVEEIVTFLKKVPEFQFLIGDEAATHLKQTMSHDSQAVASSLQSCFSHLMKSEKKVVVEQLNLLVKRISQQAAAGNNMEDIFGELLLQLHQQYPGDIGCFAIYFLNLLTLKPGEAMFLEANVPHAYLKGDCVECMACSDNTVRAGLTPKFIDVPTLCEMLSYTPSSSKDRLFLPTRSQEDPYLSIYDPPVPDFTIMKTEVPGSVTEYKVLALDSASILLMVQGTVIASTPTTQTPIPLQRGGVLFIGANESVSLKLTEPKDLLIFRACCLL

## O=C1NC(=O)C(=Cc2csc3ccccc23)C(=O)N1
[1]
  IC50: 59.7 µM (active)
[2]
  IC50: > 66 µM (inactive)
[3]
  AC50: 6.34 µM (active)
[4]
  IC50: > 66 µM (inactive)
[5]
  IC50: 26.9 µM (active)

## O=S(=O)(c1ccccc1)N1CCC[C@@]2(CCN(Cc3cc(C(F)(F)F)cc(C(F)(F)F)c3)C2)C1
[6]
  AC50: inconclusive

## Cc1ccc(-n2c(=O)c3cc4c(=O)n(-c5ccc(C)c(C)c5)c(=O)c4c(C(=O)c4ccc(C(=O)O)cc4)c3c2=O)cc1C
[7]
  IC50: 5.31 µM (active)
[8]
  IC50: 3.13 µM (active)
[9]
  IC50: 3.39 µM (active)
[10]
  IC50: 1.12 µM (active)
[11]
  IC50: 18.9 µM (active)

## O=C1CCC(=O)N(O)CCCCCNC(=O)CCC(=O)N(O)CCCCNC(=O)CCC(=O)N(O)CCCCCN1 [DESMETHYLENYLNOCARDAMINE]
[12]
  IC50: > 119 µM (inactive)
[13]
  IC50: > 119 µM (inactive)

## NC(=O)c1cc2ccc(O)cc2o/c1=N\Cc1ccccc1
[14]
  AC50: 18.7 µM (active)

## CC(/C=C\c1cccnc1)=C/C(=O)O
[15]
  EC50: 11 µM (active)

## O=C(Nc1ccc(OCc2ccccc2)cc1)c1cccs1
[16]
  AC50: 1.98 µM (active)
[17]
  AC50: 62.6 µM (active)

## C/C(=N/Nc1ccccc1[N+](=O)[O-])c1ccc([N+](=O)[O-])cc1
[18]
  IC50: > 100 µM (inactive)
[19]
  IC50: > 100 µM (inactive)
[20]
  IC50: 77.3 µM (active)
[21]
  IC50: 69.6 µM (inactive)

## CC(CC(=O)O)(CC(=O)O)C(=O)O
[22]
  AC50: inconclusive
[23]
  AC50: inconclusive

## COc1ccc(C)cc1/N=c1\ssnc1Cl
[24]
  IC50: > 100 µM (inactive)
[25]
  IC50: 22.5 µM (active)

From ChEMBL document CHEMBL1201862, “PubChem BioAssay data set” (2004)
